{"source": "patent US9897613B2", "about": "“Mass spectrometric measurement of microbial resistances” (Bruker Daltonik GmbH, priority 2007, dated 2018)", "key": {"[1]": {"tested_on": "E. coli with a resistance to ampicillin due to a plasmid pUC19", "assay": "Mass spectrometric (MALDI) protein profile after incubation with antibiotic in liquid nutrient medium, resistant strain", "format": "cell-based, Escherichia coli", "details": "ampicillin in a liquid nutrient medium allowed to act for two hours, FIG. 2 bottom", "procedure": "The mass spectra contain predominantly protein signals of the same mass, with the usual lack of reproducibility of the intensities. They are identified as being identical by suitable computer programs.\n(§1) The non-resistant type of E. coli (top) has been destroyed; all protein signals of the mass spectra from FIG. 1 have disappeared.\n(§2) The illustrative method starts in step 300 and comprises the following steps: • (a) In step 302, a quantity of microbes under investigation is added to a nutrient medium which also contains a quantity of the antibiotic, • (b) Next, in step 304, the microbes are incubated at a predetermined temperature for a predetermined length of time, preferably not longer than a few hours, • (c) In step 306, the microbes are then removed from the nutrient medium by a suitable means, such as centrifuging, • (d) The microbes are then applied, in step 308, together with a matrix solution to a mass spectrometric sample support and the matrix solution is dried on the sample support to form a sample, • (e) In step 310, a mass spectrum of this sample is acquired, and • (f) Then, in step 312, the acquired mass spectrum is compared with reference mass spectra of these microbes. The process then finishes in step 314.\nInfectious microbes are incubated for about two hours at temperatures of between 35° C. and 40° C. in the presence of the antibiotics. […]"}, "[2]": {"tested_on": "non-resistant type of E. coli", "assay": "Mass spectrometric (MALDI) protein profile after incubation with antibiotic in liquid nutrient medium, non-resistant strain", "format": "cell-based, Escherichia coli", "details": "ampicillin in a liquid nutrient medium allowed to act for two hours, FIG. 2 top", "procedure": "as §1, §2\nInfectious microbes are incubated for about two hours at temperatures of between 35° C. and 40° C. in the presence of the antibiotics. This temperature is the optimum one for most infectious microbes because they are generally adapted to a life in mammals. […]"}}}
{"smiles": "CC1(C)S[C@@H]2[C@H](NC(=O)[C@H](N)c3ccccc3)C(=O)N2[C@H]1C(=O)O", "note": "[ampicillin]", "values": [{"measurement": "effect on microbes / protein profile of the mass spectrum", "setting": "[1]", "result": "protein profile which is sufficiently similar to the two mass spectra in FIG. 1"}, {"measurement": "effect on microbes / protein signals of the mass spectrum", "setting": "[2]", "result": "destroyed"}]}
